Laboratory results published in patent US12049450B2, “Pyridyloxy-carboxylate derivative and preparation method therefor, herbicidal composition, and use” (Qingdao Kingagroot Chemical Compound Co., Ltd., priority 2018, dated 2024).

Legend:
Assay in all cases: Post-emergence test experiment (greenhouse pot, spray at 2-3 leaf stage)
Assay type in all cases: in vivo
Details in all cases: 1000 g/ha; post-emergence spray at 2-3 leaf stage; assessed after 3 weeks; fresh weight inhibition rate
Abutilon theophrasti = system: Abutilon theophrasti
Procedure, shortened: (§1)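 Weed seeds sown in soil-filled pots in greenhouse, sprayed at 2-3 leaf stage (2 weeks after sowing) with compound in acetone/tween-80 plus methyl oleate emulsible concentrate (1.5 L/ha) diluted in water. Fresh-weight growth inhibition scored after 3 weeks on 0-5 scale (5: >85%, 0: <5%).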

Digitaria sanguinalis = system: Digitaria sanguinalis
Procedure, shortened: as §1

Echinochloa crusgalli = system: Echinochloa crusgalli
Procedure, shortened: as §1

Galium spurium = system: Galium spurium
Procedure, shortened: as §1

Monochoria vaginalis = system: Monochoria vaginalis
Procedure, shortened: as §1

Row | Structure (SMILES) | Activity level (growth inhibition rate) Abutilon theophrasti (Abutilon theophrasti) | Activity level (growth inhibition rate) Digitaria sanguinalis (Digitaria sanguinalis) | Activity level (growth inhibition rate) Echinochloa crusgalli (Echinochloa crusgalli) | Activity level (growth inhibition rate) Galium spurium (Galium spurium) | Activity level (growth inhibition rate) Monochoria Vaginalis (Monochoria vaginalis)
1 | CC(Oc1nc(F)c(Cl)c(N)c1C1CC1)C(=O)OCc1ccccc1 (stereo not shown) [Compound 22] | 5 (Level 5: the growth inhibition rate is greater than 85%) | 5 (Level 5: the growth inhibition rate is greater than 85%) | 5 (Level 5: the growth inhibition rate is greater than 85%) | 5 (Level 5: the growth inhibition rate is greater than 85%) | 5 (Level 5: the growth inhibition rate is greater than 85%)
2 | CC(Oc1nc(F)c(Cl)c(NCc2ccccc2)c1Cl)C(=O)OCc1ccccc1 (stereo not shown) [Compound 195] | 5 (Level 5: the growth inhibition rate is greater than 85%) | 5 (Level 5: the growth inhibition rate is greater than 85%) | 5 (Level 5: the growth inhibition rate is greater than 85%) | 5 (Level 5: the growth inhibition rate is greater than 85%) | 5 (Level 5: the growth inhibition rate is greater than 85%)
3 | CC(Oc1nc(F)c(Cl)c(N)c1Cl)C(=O)OCc1cnn(C)c1 (stereo not shown) [Compound 217] | 5 (Level 5: the growth inhibition rate is greater than 85%) | 5 (Level 5: the growth inhibition rate is greater than 85%) | 5 (Level 5: the growth inhibition rate is greater than 85%) | 5 (Level 5: the growth inhibition rate is greater than 85%) | 5 (Level 5: the growth inhibition rate is greater than 85%)
4 | CC(Oc1nc(F)c(Cl)c(N)c1Cl)C(=O)OCc1ccncc1 (racemic) [Compound 117] | 5 (Level 5: the growth inhibition rate is greater than 85%) | 5 (Level 5: the growth inhibition rate is greater than 85%) | 5 (Level 5: the growth inhibition rate is greater than 85%) | 5 (Level 5: the growth inhibition rate is greater than 85%) | 5 (Level 5: the growth inhibition rate is greater than 85%)
5 | C/C=C/c1ccc(CSC(=O)C(C)Oc2nc(F)c(Cl)c(N)c2Cl)cc1 (stereo not shown) [Compound 73] | 5 (Level 5: the growth inhibition rate is greater than 85%) | 5 (Level 5: the growth inhibition rate is greater than 85%) | 5 (Level 5: the growth inhibition rate is greater than 85%) | 5 (Level 5: the growth inhibition rate is greater than 85%) | 5 (Level 5: the growth inhibition rate is greater than 85%)
6 | CC(Oc1nc(F)c(Cl)c(N)c1Cl)C(=O)OCc1cnns1 (stereo not shown) [Compound 166] | 5 (Level 5: the growth inhibition rate is greater than 85%) | 5 (Level 5: the growth inhibition rate is greater than 85%) | 5 (Level 5: the growth inhibition rate is greater than 85%) | 5 (Level 5: the growth inhibition rate is greater than 85%) | 5 (Level 5: the growth inhibition rate is greater than 85%)
7 | CC(Oc1nc(F)c(Cl)c(N)c1Cl)C(=O)OCc1cc([N+](=O)[O-])ccc1F (stereo not shown) [Compound 86] | 5 (Level 5: the growth inhibition rate is greater than 85%) | 5 (Level 5: the growth inhibition rate is greater than 85%) | 5 (Level 5: the growth inhibition rate is greater than 85%) | 5 (Level 5: the growth inhibition rate is greater than 85%) | 5 (Level 5: the growth inhibition rate is greater than 85%)
8 | CC(=O)Nc1ccc(CSC(=O)C(C)Oc2nc(F)c(Cl)c(N)c2Cl)cc1 (stereo not shown) [Compound 97] | 5 (Level 5: the growth inhibition rate is greater than 85%) | 5 (Level 5: the growth inhibition rate is greater than 85%) | 5 (Level 5: the growth inhibition rate is greater than 85%) | 5 (Level 5: the growth inhibition rate is greater than 85%) | 5 (Level 5: the growth inhibition rate is greater than 85%)
9 | CC(Oc1nc(F)c(Cl)c(N)c1Cl)C(=O)OC(C)c1ccc(Br)cc1 (stereo not shown) [Compound 77] | 5 (Level 5: the growth inhibition rate is greater than 85%) | 5 (Level 5: the growth inhibition rate is greater than 85%) | 5 (Level 5: the growth inhibition rate is greater than 85%) | 5 (Level 5: the growth inhibition rate is greater than 85%) | 5 (Level 5: the growth inhibition rate is greater than 85%)
10 | Cc1ncc(COC(=O)C(C)Oc2nc(F)c(Cl)c(N)c2Cl)s1 (stereo not shown) [Compound 157] | 5 (Level 5: the growth inhibition rate is greater than 85%) | 5 (Level 5: the growth inhibition rate is greater than 85%) | 5 (Level 5: the growth inhibition rate is greater than 85%) | 5 (Level 5: the growth inhibition rate is greater than 85%) | 5 (Level 5: the growth inhibition rate is greater than 85%)
11 | CC(Oc1nc(F)c(Cl)c(N)c1Cl)C(=O)OCCc1cnn[nH]1 (stereo not shown) [Compound 135] | 5 (Level 5: the growth inhibition rate is greater than 85%) | 5 (Level 5: the growth inhibition rate is greater than 85%) | 5 (Level 5: the growth inhibition rate is greater than 85%) | 5 (Level 5: the growth inhibition rate is greater than 85%) | 5 (Level 5: the growth inhibition rate is greater than 85%)
12 | CC(Oc1nc(F)c(Cl)c(N)c1Cl)C(=O)OCc1nccs1 (stereo not shown) [Compound 163] | 5 (Level 5: the growth inhibition rate is greater than 85%) | 5 (Level 5: the growth inhibition rate is greater than 85%) | 5 (Level 5: the growth inhibition rate is greater than 85%) | 5 (Level 5: the growth inhibition rate is greater than 85%) | 5 (Level 5: the growth inhibition rate is greater than 85%)
13 | CC(Oc1nc(F)c(Cl)c(N)c1Cl)C(=O)SCc1csnn1 (stereo not shown) [Compound 168] | 5 (Level 5: the growth inhibition rate is greater than 85%) | 5 (Level 5: the growth inhibition rate is greater than 85%) | 5 (Level 5: the growth inhibition rate is greater than 85%) | 5 (Level 5: the growth inhibition rate is greater than 85%) | 5 (Level 5: the growth inhibition rate is greater than 85%)
14 | Cc1noc(C)c1COC(=O)C(C)Oc1nc(F)c(Cl)c(N)c1Cl (stereo not shown) [Compound 147] | 5 (Level 5: the growth inhibition rate is greater than 85%) | 5 (Level 5: the growth inhibition rate is greater than 85%) | 5 (Level 5: the growth inhibition rate is greater than 85%) | 5 (Level 5: the growth inhibition rate is greater than 85%) | 5 (Level 5: the growth inhibition rate is greater than 85%)
15 | CC(Oc1nc(F)c(Cl)c(N)c1Cl)C(=O)SCc1nccs1 (stereo not shown) [Compound 156] | 5 (Level 5: the growth inhibition rate is greater than 85%) | 5 (Level 5: the growth inhibition rate is greater than 85%) | 5 (Level 5: the growth inhibition rate is greater than 85%) | 5 (Level 5: the growth inhibition rate is greater than 85%) | 5 (Level 5: the growth inhibition rate is greater than 85%)
16 | CC(Oc1nc(F)c(Cl)c(N)c1Cl)C(=O)SCc1nc2ccccc2[nH]1 (stereo not shown) [Compound 170] | 5 (Level 5: the growth inhibition rate is greater than 85%) | 5 (Level 5: the growth inhibition rate is greater than 85%) | 5 (Level 5: the growth inhibition rate is greater than 85%) | 5 (Level 5: the growth inhibition rate is greater than 85%) | 5 (Level 5: the growth inhibition rate is greater than 85%)
17 | CC(Oc1nc(F)c(Cl)c(N)c1Cl)C(=O)SCc1ccc(C(F)(F)F)cc1 (stereo not shown) [Compound 234] | 5 (Level 5: the growth inhibition rate is greater than 85%) | 5 (Level 5: the growth inhibition rate is greater than 85%) | 5 (Level 5: the growth inhibition rate is greater than 85%) | 5 (Level 5: the growth inhibition rate is greater than 85%) | 5 (Level 5: the growth inhibition rate is greater than 85%)
